# Measurements taken from paper PMC4448982, “LP-925219 maximizes urinary glucose excretion in mice by inhibiting both renal SGLT1 and SGLT2” (Pharmacology Research & Perspectives, 2015).
# Where two headings read alike, the source gives them in different places.
# Experiments:
# [1] = Pharmacokinetics in mice (intravenous and oral); format: in vivo; conditions: mouse
# Description: Adult male C57BL/6J mice (25–35 g) were maintained on chow diet, had free access to water and were conscious through the study. LP-925219 was delivered by bolus intravenous administration at 1 mg/kg or by oral gavage at a dose of 10 mg/kg; 0.1% Tween-80 served as vehicle. Following intravenous injection, serial blood samples were collected in Ethylenediaminetetraacetic acid-containing tubes through 6 h. Following oral administration, serial blood samples were collected through 24 h. The plasma fraction was immediately separated by centrifugation at 4°C, and then stored at −20°C until sample analysis. To quantify LP-925219 concentrations, plasma samples were extracted with acetonitrile-water-formic acid (80:20:0.1) containing verapamil as internal standard at a concentration of 1 μmol/L. Extracted samples were analyzed by LC/MS-MS using a Surveyor HPLC system with a TSQ triple quadrupole mass spectrometer coupled with an Electrospray ionization source (Thermo Fisher Scientific, Waltham, MA). XCalibur 2.0 SR2 software (Thermo Fisher Scientific) was used for instrument control and data calculation. A rapid LC gradient with ammonium acetate […] (pH ∼6) and acetonitrile was used. Calculations were made by normalizing the area counts of compound to the area counts of the internal standard (relative area counts).
# All plasma concentration versus time data for LP-925219 were analyzed using noncompartmental analysis, either extravascular administration (for oral administration) or bolus IV administration (for intravenous administration), of Phoenix™ WinNonlin® (version 6.3, Pharsight, Inc. Mountain View, CA). The half-life during the terminal phase was calculated from the elimination rate constant (λ) determined by the linear regression analysis of the log-linear part of the plasma concentration curve. The LP-925219 AUC0–t was calculated using linear up/log down trapezoidal method up to the last measured concentration at time t (Ct). AUC0–∞ was calculated as AUC0–t + Ct/λ. Clearance (CL) was calculated by dose/AUC0–∞. Other pharmacokinetic parameters included plasma peak concentration (Cmax), the time of Cmax (Tmax) and volume of distribution at steady state (Vss). Oral bioavailability (%F) was calculated by the equation: %F = (AUC0–∞ PO/AUC0–∞ IV) × (Dose IV/Dose PO).
# renal SGLT1 and SGLT2 [2] = biological target: T1, renal SGLT1 and SGLT2 (Mus musculus, UniProt Q8C3K6); assay: Metabolic cage study, 24-h urinary glucose excretion; format: in vivo; conditions: SGLT2 KO mice
# T1 construct: from tissue; host or cells: kidney of living WT, SGLT1 KO, SGLT2 KO and DKO mice (C57BL/6J-129 SvEv hybrid)
# T1 sequence (Q8C3K6 1-665): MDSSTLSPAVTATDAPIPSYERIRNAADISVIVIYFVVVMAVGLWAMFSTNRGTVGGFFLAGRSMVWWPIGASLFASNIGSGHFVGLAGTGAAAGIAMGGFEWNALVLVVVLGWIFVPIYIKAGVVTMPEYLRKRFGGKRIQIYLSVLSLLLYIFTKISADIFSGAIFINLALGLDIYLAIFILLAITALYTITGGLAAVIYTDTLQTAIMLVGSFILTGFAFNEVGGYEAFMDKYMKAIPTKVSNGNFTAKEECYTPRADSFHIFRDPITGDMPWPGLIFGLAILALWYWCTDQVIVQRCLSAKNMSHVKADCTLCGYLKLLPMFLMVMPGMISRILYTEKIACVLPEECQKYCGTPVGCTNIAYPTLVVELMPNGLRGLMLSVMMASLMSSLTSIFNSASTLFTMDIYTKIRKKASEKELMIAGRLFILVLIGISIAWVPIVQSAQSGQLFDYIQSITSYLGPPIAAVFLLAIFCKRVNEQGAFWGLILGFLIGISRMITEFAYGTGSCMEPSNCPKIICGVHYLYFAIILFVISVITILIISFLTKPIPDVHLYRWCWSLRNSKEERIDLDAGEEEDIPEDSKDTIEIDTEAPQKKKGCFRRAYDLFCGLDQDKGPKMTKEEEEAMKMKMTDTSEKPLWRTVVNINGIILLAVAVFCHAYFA
# Description: (§1) Mice were individually housed in Nalgene Metabolic Cages for Mice (product MTB-0311), and 24-h urine collections were made to determine 24-h UGE, as described previously (Powell et al. [2013a]). Some mice received a single dose of either LP-925219 or vehicle by oral gavage at 8 am immediately prior to initiating collection of 24-h urine samples; in addition, some mice received two doses of either vehicle or 60 mg/kg LP-925219 by oral gavage, with the first dose given at 8 am and the second dose given at 6 pm, nearly midway through the collection of the 24-h urine sample.
# (§2) Figure 5 UGE values in mice treated with a single dose of LP-925219. After DKO, S2 KO, S1 KO, and WT littermate mice received, by a single oral gavage at 8 am, either vehicle (Veh) or LP-925219 at a dose of (A) 1 mg/kg; (B) 10 mg/kg; or (C) 60 mg/kg, the mice were placed in metabolic cages and their urine was collected over the next 24 h and analyzed for total glucose. N = 5–11 mice/group. UGE < DKO UGE: *P < 0.05, **P < 0.01, ***P < 0.001; LP-925219 UGE > Veh UGE for the same group, ^^^P < 0.001. UGE, urinary glucose excretion.
# (§3) Figure 6 UGE values in mice treated with two doses of 60 mg/kg LP-925219. DKO, S2 KO, S1 KO, and WT littermate mice received, by oral gavage at 8 am and then again at 6 pm, either vehicle (Veh) or LP-925219 at a dose of 60 mg/kg. The mice were placed in metabolic cages after the first gavage and their urine was collected over the next 24 h and analyzed for total glucose. N = 6–11 mice/group. UGE < DKO UGE, ***P < 0.001; LP-925219 UGE > Veh UGE for the same group, ^^^P < 0.001. UGE, urinary glucose excretion.
# renal SGLT1 and SGLT2 [3] = assay: as above; format: in vivo, mouse
# Description: as §1, §2, §3
# [4] = male, C57BL/6J, plasma, 1 mg/kg intravenous
# [5] = male, C57BL/6J, plasma, 10 mg/kg oral
compound,measurement,setting,value
COc1ccc(Cc2cc([C@@H]3O[C@H](SC)[C@@H](O)[C@H](O)[C@H]3O)ccc2Cl)cc1 [LP-925219],AUC(0-inf),[1]; [4],1.41 ± 0.04 µM·h
same,AUC(0-t),[1]; [4],1.214 ± 0.012 µM·h
same,Cmax,[1]; [4],1440 ± 97 nM
same,clearance,[1]; [4],29 ± 1 mL/min/kg
same,half-life,[1]; [4],168 ± 42 min
same,Vd,"[1]; male, C57BL/6J, plasma, 1 mg/kg intravenous, read-out: Vss",4.4 ± 0.6 L/kg
same,AUC(0-t),[1]; [5],11.2 µM·h
same,Cmax,[1]; [5],3160 ± 802 nM
same,Tmax,[1]; [5],18 min
same,half-life,[1]; [5],420 ± 54 min
same,bioavailability,"[1]; male, C57BL/6J, plasma, 10 mg/kg oral vs 1 mg/kg intravenous, read-out: %F",87 ± 21%
same,concentration at 6 h,"[1]; male, C57BL/6J, plasma, 10 mg/kg oral, 6 h, read-out: plasma level at 6 h postdosing",617 ± 107 nM
same,concentration at 24 h,"[1]; male, C57BL/6J, plasma, 10 mg/kg oral, 24 h, read-out: plasma level at 24 h post dosing",100 ± 43 nM
same,bioavailability,"[1]; male, C57BL/6J, plasma, 10 mg/kg oral, read-out: bioavailability (%F)",87%
same,AUC0-∞,[1]; 10 mg/kg oral,"12,214 ± 3037 nmo/L*h"
same,plasma level at 24 h post dosing,"[1]; 10 mg/kg oral, 24 h, 10 mg/kg",100 nmol/L
same,24-h UGE,"renal SGLT1 and SGLT2 [2]; single oral dose 60 mg/kg, maximal = vehicle-treated DKO",80 ± 18 % of maximal
same,24-h UGE,"renal SGLT1 and SGLT2 [2]; single oral dose 1 or 10 mg/kg, vs vehicle",did not show a significant increase
same,24-h UGE,"renal SGLT1 and SGLT2 [2]; two oral 60 mg/kg doses (8 am, 6 pm)",89 ± 16 % of maximal
same,24-h UGE,"renal SGLT1 and SGLT2 [3]; DKO mice, single oral dose 1, 10 or 60 mg/kg, vs vehicle",not significantly increased
same,24-h UGE,"renal SGLT1 and SGLT2 [3]; DKO mice, two oral 60 mg/kg doses (8 am, 6 pm), vs vehicle",not significantly increased
same,24-h UGE,"renal SGLT1 and SGLT2 [3]; SGLT1 KO mice, single oral dose 1 mg/kg",almost maximal
same,24-h UGE,"renal SGLT1 and SGLT2 [3]; SGLT1 KO mice, single oral dose, all higher doses (10, 60 mg/kg)",maximal
same,24-h UGE,"renal SGLT1 and SGLT2 [3]; SGLT1 KO mice, two oral 60 mg/kg doses (8 am, 6 pm)",maximally increased
same,24-h UGE,"renal SGLT1 and SGLT2 [3]; WT mice, single oral dose 1 mg/kg, vs vehicle",did not show a significant response
same,24-h UGE,"renal SGLT1 and SGLT2 [3]; WT mice, single oral dose 60 mg/kg, maximal = vehicle-treated DKO",68 ± 15 % of maximal
same,24-h UGE,"renal SGLT1 and SGLT2 [3]; WT mice, two oral 60 mg/kg doses (8 am, 6 pm)",90 ± 17 % of maximal
